Data taken from the NIST ThermoML archive (doi:10.1021/acs.jced.5b00806).

Experiment: wn = mass fraction of the nth substance listed
Conditions: 98 kPa, Liquid, Capillary tube (Ostwald / Ubbelohde) method

COP(=O)([O-])OC.Cn1cc[n+](C)c1 [1,3-dimethylimidazolium dimethylphosphate] + O
kinematic viscosity [m2/s]
Conditions	w2 = 0.0031	w2 = 0.0085	w2 = 0.019	w2 = 0.0237	w2 = 0.0341	w2 = 0.0493	w2 = 0.0587	w2 = 0.0655
303.2 K	0.000137	0.000128	0.000114	0.000107	9.53e-05	7.95e-05	7.22e-05	6.73e-05
313.2 K	7.79e-05	7.35e-05	6.62e-05	6.27e-05	5.63e-05	4.77e-05	4.37e-05	4.09e-05
323.2 K	4.84e-05	4.59e-05	4.18e-05	3.98e-05	3.6e-05	3.09e-05	2.85e-05	2.68e-05
333.2 K	3.22e-05	3.07e-05	2.81e-05	2.69e-05	2.45e-05	2.13e-05	1.97e-05	1.86e-05
343.2 K	2.27e-05	2.17e-05	2e-05	1.92e-05	1.75e-05	1.53e-05	1.43e-05	1.35e-05
353.2 K	1.67e-05	1.6e-05	1.48e-05	1.42e-05	1.31e-05	1.15e-05	1.07e-05	1.02e-05
363.2 K	1.27e-05	1.22e-05	1.17e-05	1.09e-05	1.01e-05	8.9e-06	8.5e-06	8e-06

CCOS(=O)(=O)[O-].CCn1cc[n+](C)c1 [1-ethyl-3-methylimidazolium ethyl sulfate] + O
kinematic viscosity [m2/s]
Conditions	w2 = 0.0038	w2 = 0.009	w2 = 0.0164	w2 = 0.0239	w2 = 0.0359	w2 = 0.0483	w2 = 0.0563	w2 = 0.066
303.2 K	5.5e-05	5.06e-05	4.43e-05	4.03e-05	3.57e-05	3.26e-05	3.13e-05	2.99e-05
313.2 K	3.74e-05	3.56e-05	3.11e-05	2.86e-05	2.51e-05	2.3e-05	2.21e-05	2.11e-05
323.2 K	2.69e-05	2.63e-05	2.34e-05	2.17e-05	1.99e-05	1.69e-05	1.63e-05	1.55e-05
333.2 K	2.01e-05	1.9e-05	1.8e-05	1.67e-05	1.52e-05	1.31e-05	1.24e-05	1.18e-05
343.2 K	1.54e-05	1.49e-05	1.41e-05	1.35e-05	1.21e-05	1.05e-05	9.8e-06	9.3e-06
353.2 K	1.21e-05	1.17e-05	1.13e-05	1.11e-05	1.01e-05	9e-06	8.1e-06	7.6e-06
363.2 K	9.8e-06	9.4e-06	9.1e-06	8.8e-06	8.4e-06	8e-06	7e-06	6.5e-06

CCOCCOCCOS(=O)(=O)[O-].CCn1cc[n+](C)c1 [1-ethyl-3-methylimidazolium 2-(2-ethoxyethoxy)ethylsulfate] + O
kinematic viscosity [m2/s]
Conditions	w2 = 0.0019	w2 = 0.0085	w2 = 0.0195	w2 = 0.0251	w2 = 0.0353	w2 = 0.0495	w2 = 0.0569	w2 = 0.0663
303.2 K	0.000128	0.000103	7.64e-05	6.69e-05	5.26e-05	4.17e-05	3.84e-05	3.34e-05
313.2 K	7.46e-05	6.17e-05	4.74e-05	4.22e-05	3.38e-05	2.73e-05	2.52e-05	2.24e-05
323.2 K	4.76e-05	4.02e-05	3.17e-05	2.83e-05	2.31e-05	1.92e-05	1.76e-05	1.58e-05
333.2 K	3.23e-05	2.78e-05	2.23e-05	2.02e-05	1.67e-05	1.41e-05	1.29e-05	1.18e-05
343.2 K	2.32e-05	2.02e-05	1.65e-05	1.51e-05	1.26e-05	1.08e-05	9.8e-06	9.1e-06
353.2 K	1.81e-05	1.53e-05	1.26e-05	1.17e-05	9.9e-06	8.5e-06	7.8e-06	7.3e-06
363.2 K	1.34e-05	1.16e-05	1e-05	9.3e-06	7.9e-06	6.9e-06	6.3e-06	5.9e-06
